{"source": "the supplement of paper PMC10307832", "test_in_all_cases": "relative viability (nuclei count vs DMSO), 5 days (fraction); higher = more cells survive", "key": {"VE-821 + Foretinib": {"compound": "CS(=O)(=O)c1ccc(-c2cnc(N)c(C(=O)Nc3ccccc3)n2)cc1 [VE-821] + COc1cc2c(Oc3ccc(NC(=O)C4(C(=O)Nc5ccc(F)cc5)CC4)cc3F)ccnc2cc1OCCCN1CCOCC1 [Foretinib] (partner 0.25 µM)", "method_in_brief": "(§1)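 Lung cancer cell lines in 1536-well plates were dosed by pin tool the day after seeding, either with one drug alone or with a fixed anchor-drug dose plus five library-drug doses (not always all listed) in √10 steps. After 5 days, cells were fixed and their nuclei stained in one step (final 0.05% Triton X-100, 1% formaldehyde, 1 ug/ml Hoechst), then counted on 4× images. Relative viability is the nuclei count in treated wells divided by that in vehicle wells. Values are medians of duplicate plates.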"}, "VE-821 + Navitoclax": {"compound": "CS(=O)(=O)c1ccc(-c2cnc(N)c(C(=O)Nc3ccccc3)n2)cc1 [VE-821] + CC1(C)CCC(c2ccc(Cl)cc2)=C(CN2CCN(c3ccc(C(=O)NS(=O)(=O)c4ccc(N[C@H](CCN5CCOCC5)CSc5ccccc5)c(S(=O)(=O)C(F)(F)F)c4)cc3)CC2)C1 [Navitoclax] (partner 0.5 µM)", "method_in_brief": "as §1"}, "VE-821 + Dasatinib": {"compound": "CS(=O)(=O)c1ccc(-c2cnc(N)c(C(=O)Nc3ccccc3)n2)cc1 [VE-821] + Cc1nc(Nc2ncc(C(=O)Nc3c(C)cccc3Cl)s2)cc(N2CCN(CCO)CC2)n1 [Dasatinib] (partner 0.075 µM)", "method_in_brief": "as §1"}, "Vismodegib + Crizotinib": {"compound": "CS(=O)(=O)c1ccc(C(=O)Nc2ccc(Cl)c(-c3ccccn3)c2)c(Cl)c1 [Vismodegib] + C[C@@H](Oc1cc(-c2cnn(C3CCNCC3)c2)cnc1N)c1c(Cl)ccc(F)c1Cl [Crizotinib] (partner 1 µM)", "method_in_brief": "as §1"}}}
{"cell line": "UMC-11", "values": [{"measurement": "relative viability", "setting": "VE-821 + Foretinib; first compound 0.08 µM", "result": 1.09}, {"measurement": "relative viability", "setting": "VE-821 + Foretinib; first compound 0.253 µM", "result": 1.01}, {"measurement": "relative viability", "setting": "VE-821 + Foretinib; first compound 0.8 µM", "result": 1.08}, {"measurement": "relative viability", "setting": "VE-821 + Foretinib; first compound 2.53 µM", "result": 1.06}, {"measurement": "relative viability", "setting": "VE-821 + Foretinib; first compound 8 µM", "result": 0.553}, {"measurement": "relative viability", "setting": "VE-821 + Navitoclax; first compound 0.08 µM", "result": 0.358}, {"measurement": "relative viability", "setting": "VE-821 + Navitoclax; first compound 0.253 µM", "result": 0.344}, {"measurement": "relative viability", "setting": "VE-821 + Navitoclax; first compound 0.8 µM", "result": 0.332}, {"measurement": "relative viability", "setting": "VE-821 + Navitoclax; first compound 2.53 µM", "result": 0.302}, {"measurement": "relative viability", "setting": "VE-821 + Navitoclax; first compound 8 µM", "result": 0.222}, {"measurement": "relative viability", "setting": "VE-821 + Dasatinib; first compound 0.08 µM", "result": 0.553}, {"measurement": "relative viability", "setting": "VE-821 + Dasatinib; first compound 0.253 µM", "result": 0.44}, {"measurement": "relative viability", "setting": "VE-821 + Dasatinib; first compound 0.8 µM", "result": 0.516}, {"measurement": "relative viability", "setting": "VE-821 + Dasatinib; first compound 2.53 µM", "result": 0.524}, {"measurement": "relative viability", "setting": "VE-821 + Dasatinib; first compound 8 µM", "result": 0.374}, {"measurement": "relative viability", "setting": "Vismodegib + Crizotinib; first compound 0.08 µM", "result": 0.57}, {"measurement": "relative viability", "setting": "Vismodegib + Crizotinib; first compound 0.253 µM", "result": 0.56}, {"measurement": "relative viability", "setting": "Vismodegib + Crizotinib; first compound 0.8 µM", "result": 0.723}, {"measurement": "relative viability", "setting": "Vismodegib + Crizotinib; first compound 2.53 µM", "result": 0.606}, {"measurement": "relative viability", "setting": "Vismodegib + Crizotinib; first compound 8 µM", "result": 0.652}]}
